The target of one assay is cMET (Homo sapiens, UniProt P08581). In words: MET (cMET) enzyme inhibitory activity, TR-FRET kinase assay. In kind it is biochemical. The settings on record: cMET protein, TK peptide substrate. As for the experimental part: In addition, to measure cMET enzyme activity inhibition, an experiment was performed by the same method as the experiment for measuring the RON enzyme activity inhibition.
Specifically, the compound was prepared at a concentration of 1 mM with 100% DMSO and serially diluted 10 times through 3-fold dilution. 2 μl of the serially diluted compound was added to a 96-well plate containing 48 μl 1× kinase reaction buffer (50 mM HEPES (pH 7.4), 0.05% BSA, 0.005% Tween-20, 1 mM DTT, 0.5 mM MnCl2, 20 mM MgCl2).
The cMET protein was diluted in a cMET storage buffer (50 mM Tris-HCl (pH 7.5), 150 mM NaCl, 0.05% Brij35, 1 mM DTT, 10% glycerol) to a concentration of 263 nM, and then diluted again with 1× kinase reaction buffer to 2 nM. As a substrate cocktail, a MET-specific substrate mixture (5 μM TK peptide, 10 mM ATP) was prepared at a concentration twice the final reaction concentration.
(§1) After that, a 384-well plate was prepared, and 2.5 μl of the diluted example compound was added to each of the experimental group wells, and 2.5 μl of a 4% DMSO solution was dispensed into high control wells and low control wells.
(§2) Afterward, 2.5 μl of 2 nM cMET was dispensed to the high control wells and the experimental group wells, and 2.5 μl of 1× kinase reaction buffer was added to the low control wells, and after centrifugation at 1000 RPM for 40 seconds at room temperature, the mixtures were incubated at room temperature for 20 to 30 minutes. Then, 5 μl of the substrate cocktail (2×) was dispensed into all wells, and after centrifugation at 1000 RPM for 40 seconds at room temperature, the mixtures were incubated at room temperature for 60 minutes. Afterward, 5 μl of 90 mM EDTA was added to all wells to terminate the reaction, and the mixtures were incubated again at room temperature for 5 minutes. Thereafter, 5 μl of 4× phosphotyrosine antibodies (Perkin Elmer) containing europium was added to all wells and incubated at room temperature for 60 minutes. After the incubation, the 384-well-plate was read with a Vison plate reader. At this time, the excitation wavelength was 340 nm, and the emission wavelengths were 620 nm and 665 nm. The IC50 value of each example compound was derived using the GraphPd Prism7 program.
A general note: Time-resolved FRET reads energy transfer from a long-lived donor to a nearby acceptor.

The target in a further assay is RON (Homo sapiens, UniProt Q04912). Briefly: RON inhibitory activity, TR-FRET kinase assay. In kind it is biochemical. The settings on record: RON protein, ULight-labeled Poly GT substrate. The method, then: To measure the RON inhibitory activity of the example compounds, the IC50 of the compounds was measured using time-resolved fluorescence energy transfer (TR-FRET).
Sequence of RON (Q04912 25-1400, species assumed): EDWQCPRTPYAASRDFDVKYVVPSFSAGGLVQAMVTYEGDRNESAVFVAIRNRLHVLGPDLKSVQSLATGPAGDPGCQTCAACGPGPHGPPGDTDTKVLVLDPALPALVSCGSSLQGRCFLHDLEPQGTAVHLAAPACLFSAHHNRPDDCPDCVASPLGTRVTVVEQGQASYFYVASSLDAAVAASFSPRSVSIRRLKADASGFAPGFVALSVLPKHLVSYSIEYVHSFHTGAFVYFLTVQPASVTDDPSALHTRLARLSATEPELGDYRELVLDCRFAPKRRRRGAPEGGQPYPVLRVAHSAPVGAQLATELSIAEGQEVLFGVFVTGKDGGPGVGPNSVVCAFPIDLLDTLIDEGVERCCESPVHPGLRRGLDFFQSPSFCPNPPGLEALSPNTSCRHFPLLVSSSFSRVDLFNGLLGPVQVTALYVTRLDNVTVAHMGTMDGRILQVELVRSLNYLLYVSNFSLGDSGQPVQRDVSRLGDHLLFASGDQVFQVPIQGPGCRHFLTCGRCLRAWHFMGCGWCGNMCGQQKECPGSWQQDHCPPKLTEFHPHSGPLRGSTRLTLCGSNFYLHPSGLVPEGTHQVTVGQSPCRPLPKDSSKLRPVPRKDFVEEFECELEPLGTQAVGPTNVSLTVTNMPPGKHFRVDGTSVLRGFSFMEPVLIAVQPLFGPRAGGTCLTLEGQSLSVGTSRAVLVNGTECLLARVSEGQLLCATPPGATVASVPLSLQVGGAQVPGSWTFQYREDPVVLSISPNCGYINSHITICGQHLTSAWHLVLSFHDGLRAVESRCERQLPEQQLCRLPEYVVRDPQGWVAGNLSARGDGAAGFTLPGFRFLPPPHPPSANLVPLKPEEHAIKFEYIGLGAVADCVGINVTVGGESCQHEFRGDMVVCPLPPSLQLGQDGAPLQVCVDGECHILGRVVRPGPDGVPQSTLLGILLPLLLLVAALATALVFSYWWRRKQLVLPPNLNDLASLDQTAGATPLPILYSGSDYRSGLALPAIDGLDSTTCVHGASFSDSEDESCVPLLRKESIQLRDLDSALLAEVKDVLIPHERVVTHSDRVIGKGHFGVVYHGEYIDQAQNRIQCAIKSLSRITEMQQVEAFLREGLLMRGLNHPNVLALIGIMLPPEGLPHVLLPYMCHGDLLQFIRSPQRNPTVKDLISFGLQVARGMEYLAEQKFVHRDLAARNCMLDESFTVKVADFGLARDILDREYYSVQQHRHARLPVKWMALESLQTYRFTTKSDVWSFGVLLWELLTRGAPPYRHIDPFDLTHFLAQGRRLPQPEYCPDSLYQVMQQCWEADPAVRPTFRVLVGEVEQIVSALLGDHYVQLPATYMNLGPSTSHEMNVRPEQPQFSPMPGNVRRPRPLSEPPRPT
Specifically, the compound was prepared at a concentration of 1 mM with 100% DMSO and serially diluted 10 times through 3-fold dilution. 2 μl of the serially diluted compound was added to a 96-well plate containing 48 μl of 1× kinase reaction buffer (50 mM HEPES (pH 7.4), 0.01% Tween-20, 5 mM DTT, 0.5 mM Na3VO4, 2 mM EGTA, 10 mM MgCl2).
The RON protein was diluted with a RON storage buffer (50 mM Tris-HCl (pH 7.5), 150 mM NaCl, 0.5 mM EDTA, 0.02% Triton X-100) to a concentration of 49.3 nM, and then diluted again with 1× kinase reaction buffer to be 0.4 nM. As a substrate cocktail, a RON-specific substrate mixture (40 μM ULight-labeled Poly GT, 100 nM ATP) was prepared at a concentration twice the final reaction concentration.
as §1
as §2, with “of 0.4” for “of 2”, “nM RON” for “nM cMET”, “dispensed into” for “dispensed to”, “of 30” for “of 90”

Usually IC50 stands for the midpoint of a concentration-inhibition curve. A higher IC50 goes with weaker potency.

Bounds are passed on as bounds.

Sequence of cMET (P08581 25-1390): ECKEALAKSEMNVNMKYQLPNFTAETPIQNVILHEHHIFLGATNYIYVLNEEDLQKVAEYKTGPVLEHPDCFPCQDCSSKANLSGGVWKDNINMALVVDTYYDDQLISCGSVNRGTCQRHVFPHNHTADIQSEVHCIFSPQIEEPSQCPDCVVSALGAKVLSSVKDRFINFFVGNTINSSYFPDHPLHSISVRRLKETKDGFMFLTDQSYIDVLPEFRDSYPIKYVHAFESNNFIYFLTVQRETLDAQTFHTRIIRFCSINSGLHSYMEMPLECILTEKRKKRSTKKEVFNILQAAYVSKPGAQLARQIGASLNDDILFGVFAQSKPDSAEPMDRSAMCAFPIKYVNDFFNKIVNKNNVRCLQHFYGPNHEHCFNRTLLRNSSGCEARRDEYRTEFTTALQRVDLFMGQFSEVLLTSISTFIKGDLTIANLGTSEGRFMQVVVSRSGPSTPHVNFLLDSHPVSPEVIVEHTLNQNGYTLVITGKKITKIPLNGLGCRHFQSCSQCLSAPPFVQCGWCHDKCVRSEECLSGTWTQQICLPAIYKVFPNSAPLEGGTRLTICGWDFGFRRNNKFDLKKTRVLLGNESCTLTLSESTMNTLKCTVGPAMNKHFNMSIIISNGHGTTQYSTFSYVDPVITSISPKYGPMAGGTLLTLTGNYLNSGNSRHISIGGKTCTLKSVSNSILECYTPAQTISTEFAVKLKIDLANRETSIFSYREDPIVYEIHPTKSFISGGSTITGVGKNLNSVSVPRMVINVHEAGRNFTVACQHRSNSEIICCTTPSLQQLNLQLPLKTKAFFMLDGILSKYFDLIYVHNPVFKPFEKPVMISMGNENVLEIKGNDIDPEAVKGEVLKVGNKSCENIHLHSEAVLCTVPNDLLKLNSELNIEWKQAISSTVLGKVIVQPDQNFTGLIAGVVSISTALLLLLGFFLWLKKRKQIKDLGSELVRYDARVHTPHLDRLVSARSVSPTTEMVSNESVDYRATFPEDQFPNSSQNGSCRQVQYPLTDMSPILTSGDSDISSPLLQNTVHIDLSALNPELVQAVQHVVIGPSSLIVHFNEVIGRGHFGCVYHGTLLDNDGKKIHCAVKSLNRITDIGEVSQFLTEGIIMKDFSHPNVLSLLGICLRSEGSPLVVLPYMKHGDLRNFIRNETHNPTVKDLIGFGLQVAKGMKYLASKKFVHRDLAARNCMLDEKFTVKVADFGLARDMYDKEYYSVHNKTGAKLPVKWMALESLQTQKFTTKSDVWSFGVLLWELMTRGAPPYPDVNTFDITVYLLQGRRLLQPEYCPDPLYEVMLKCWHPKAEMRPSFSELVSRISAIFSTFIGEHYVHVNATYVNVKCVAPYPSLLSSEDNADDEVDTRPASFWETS

Turning to `Nc1nccc(Oc2c(F)cc(NC(=O)c3cnn(-c4ncccc4F)c3C(F)(F)F)cc2F)c1C1CCOCC1` [Example 20, N-(4-((2-amino-3-(tetrahydro-2H-pyran-4-yl)pyridin-4-yl)oxy)-3,5-difluorophenyl)-1-(3-fluoropyridin-2-yl)-5-(trifluoromethyl)-1H-pyrazole-4-carboxamide], the IC50 against cMET is 0.05 to 0.5 µM; on RON, under 0.05 µM.
`Nc1nccc(Oc2c(F)cc(NC(=O)c3cnn(-c4ncccc4Cl)c3C(F)(F)F)cc2F)c1C1CCOCC1` [Example 21, N-(4-((2-amino-3-(tetrahydro-2H-pyran-4-yl)pyridin-4-yl)oxy)-3,5-difluorophenyl)-1-(3-chloropyridin-2-yl)-5-(trifluoromethyl)-1H-pyrazole-4-carboxamide]: the IC50 on cMET is 0.05 to 0.5 µM; against RON it was under 0.05 µM.
On to `Nc1nccc(Oc2c(F)cc(NC(=O)c3cnn(-c4ncccn4)c3C(F)(F)F)cc2F)c1C1CCOCC1` [Example 22, N-(4-((2-amino-3-(tetrahydro-2H-pyran-4-yl)pyridin-4-yl)oxy)-3,5-difluorophenyl)-1-(pyrimidin-2-yl)-5-(trifluoromethyl)-1H-pyrazole-4-carboxamide], for which the results for the IC50 against cMET and against RON were 0.5 to 5 µM and under 0.05 µM, respectively.
Taken in the same sequence, the figures for `Nc1nccc(Oc2c(F)cc(NC(=O)c3cnn(-c4cccnn4)c3C(F)(F)F)cc2F)c1C1CCOCC1` [Example 23, N-(4-((2-amino-3-(tetrahydro-2H-pyran-4-yl)pyridin-4-yl)oxy)-3,5-difluorophenyl)-1-(pyridazin-3-yl)-5-(trifluoromethyl)-1H-pyrazole-4-carboxamide] were 0.5 to 5 µM and under 0.05 µM.
For the molecule `Nc1nccc(Oc2c(F)cc(NC(=O)c3cnn(-c4ccccn4)c3C(F)(F)F)cc2F)c1C1CCOCC1` [Example 24, N-(4-((2-amino-3-(tetrahydro-2H-pyran-4-yl)pyridin-4-yl)oxy)-3,5-difluorophenyl)-1-(pyridin-2-yl)-5-(trifluoromethyl)-1H-pyrazole-4-carboxamide], the IC50 on cMET is 0.5 to 5 µM; against RON it was under 0.05 µM.
`C#Cc1c(Oc2c(F)cc(NC(=O)c3cnn(-c4ccccc4)c3C(F)(F)F)cc2F)ccnc1N` [Example 25, N-(4-((2-amino-3-ethynylpyridin-4-yl)oxy)-3,5-difluorophenyl)-1-phenyl-5-(trifluoromethyl)-1H-pyrazole-4-carboxamide]: the IC50 against cMET was 0.5 to 5 µM; at RON it was under 0.05 µM.
Take `C#Cc1c(Oc2c(F)cc(NC(=O)c3cnn(-c4ncccc4F)c3C(F)(F)F)cc2F)ccnc1N` [Example 26, N-(4-((2-amino-3-ethynylpyridin-4-yl)oxy)-3,5-difluorophenyl)-1-(3-fluoropyridin-2-yl)-5-(trifluoromethyl)-1H-pyrazole-4-carboxamide]: the results for the IC50 against cMET and at RON were 0.5 to 5 µM and under 0.05 µM, respectively.
For `C#Cc1c(Oc2c(F)cc(NC(=O)c3cnn(-c4ncccc4Cl)c3C(F)(F)F)cc2F)ccnc1N` [Example 27, N-(4-((2-amino-3-ethynylpyridin-4-yl)oxy)-3,5-difluorophenyl)-1-(3-chloropyridin-2-yl)-5-(trifluoromethyl)-1H-pyrazole-4-carboxamide], in that order: 0.05 to 0.5 µM and under 0.05 µM.
`C#Cc1c(Oc2c(F)cc(NC(=O)c3cnn(-c4ncccn4)c3C(F)(F)F)cc2F)ccnc1N` [Example 28, N-(4-((2-amino-3-ethynylpyridin-4-yl)oxy)-3,5-difluorophenyl)-1-(pyrimidin-2-yl)-5-(trifluoromethyl)-1H-pyrazole-4-carboxamide]: the IC50 is 0.5 to 5 µM at cMET and under 0.05 µM on RON.
Take `C#Cc1c(Oc2c(F)cc(NC(=O)c3cnn(-c4ccccn4)c3C(F)(F)F)cc2F)ccnc1N` [Example 29, N-(4-((2-amino-3-ethynylpyridin-4-yl)oxy)-3,5-difluorophenyl)-1-(pyridin-2-yl)-5-(trifluoromethyl)-1H-pyrazole-4-carboxamide]: the IC50 against cMET is 0.5 to 5 µM; against RON, under 0.05 µM.
As for `C#Cc1c(Oc2c(F)cc(NC(=O)c3cnn(-c4cccnn4)c3C(F)(F)F)cc2F)ccnc1N` [Example 30, N-(4-((2-amino-3-ethynylpyridin-4-yl)oxy)-3,5-difluorophenyl)-1-(pyridazin-3-yl)-5-(trifluoromethyl)-1H-pyrazole-4-carboxamide], the IC50 on cMET is 0.5 to 5 µM; against RON, under 0.05 µM.
Consider `N#Cc1c(Oc2c(F)cc(NC(=O)c3cnn(-c4ccccc4)c3C(F)(F)F)cc2F)ccnc1N` [Example 31, N-(4-((2-amino-3-cyanopyridin-4-yl)oxy)-3,5-difluorophenyl)-1-phenyl-5-(trifluoromethyl)-1H-pyrazole-4-carboxamide], for which the results for the IC50 at cMET and at RON were 0.5 to 5 µM and under 0.05 µM, respectively.
Taken in the same sequence, the figures for `N#Cc1c(Oc2c(F)cc(NC(=O)c3cnn(-c4ccccn4)c3C(F)(F)F)cc2F)ccnc1N` [Example 32, N-(4-((2-amino-3-cyanopyridin-4-yl)oxy)-3,5-difluorophenyl)-1-(pyridin-2-yl)-5-(trifluoromethyl)-1H-pyrazole-4-carboxamide] were 0.5 to 5 µM and under 0.05 µM.
With `N#Cc1c(Oc2c(F)cc(NC(=O)c3cnn(-c4ncccc4F)c3C(F)(F)F)cc2F)ccnc1N` [Example 33, N-(4-((2-amino-3-cyanopyridin-4-yl)oxy)-3,5-difluorophenyl)-1-(3-fluoropyridin-2-yl)-5-(trifluoromethyl)-1H-pyrazole-4-carboxamide], the results for the IC50 against cMET and against RON were 0.05 to 0.5 µM and under 0.05 µM, respectively.
With `N#Cc1c(Oc2c(F)cc(NC(=O)c3cnn(-c4ncccc4Cl)c3C(F)(F)F)cc2F)ccnc1N` [Example 34, N-(4-((2-amino-3-cyanopyridin-4-yl)oxy)-3,5-difluorophenyl)-1-(3-chloropyridin-2-yl)-5-(trifluoromethyl)-1H-pyrazole-4-carboxamide], the IC50 at cMET is 0.05 to 0.5 µM; against RON, under 0.05 µM.
Take `N#Cc1c(Oc2c(F)cc(NC(=O)c3cnn(-c4ncccn4)c3C(F)(F)F)cc2F)ccnc1N` [Example 35, N-(4-((2-amino-3-cyanopyridin-4-yl)oxy)-3,5-difluorophenyl)-1-(pyrimidin-2-yl)-5-(trifluoromethyl)-1H-pyrazole-4-carboxamide]: the IC50 was 0.5 to 5 µM against cMET and under 0.05 µM at RON.
For the molecule `N#Cc1c(Oc2c(F)cc(NC(=O)c3cnn(-c4cccnn4)c3C(F)(F)F)cc2F)ccnc1N` [Example 36, N-(4-((2-amino-3-cyanopyridin-4-yl)oxy)-3,5-difluorophenyl)-1-(pyridazin-3-yl)-5-(trifluoromethyl)-1H-pyrazole-4-carboxamide], the IC50 against cMET lay within 0.5 to 5 µM; at RON, 0.05 to 0.5 µM.
Taken in the same sequence, the figures for `Nc1nccc(Oc2c(F)cc(NC(=O)c3cnn(-c4ccccc4)c3C(F)(F)F)cc2F)c1C1CC1` [Example 37, N-(4-((2-amino-3-cyclopropylpyridin-4-yl)oxy)-3,5-difluorophenyl)-1-phenyl-5-(trifluoromethyl)-1H-pyrazole-4-carboxamide] were 0.5 to 5 µM and under 0.05 µM.
